Legend:
[1] = test system: Tyrosine-protein kinase ABL1 (Homo sapiens), P00519 [F317L]; conditions: Compound concentration 1000.0 nM
[2] = test system: Tyrosine-protein kinase ABL1 (Homo sapiens), P00519 [H396P]; conditions: Compound concentration 1000.0 nM
[3] = target: Tyrosine-protein kinase ABL2 (Homo sapiens) (UniProt P42684); conditions: Compound concentration 1000.0 nM
[4] = target: Activin receptor type-2B (Homo sapiens) (UniProt Q13705); conditions: Compound concentration 1000.0 nM
[5] = target: RAC-alpha serine/threonine-protein kinase (Homo sapiens) (UniProt P31749); conditions: Compound concentration 1000.0 nM
[6] = target: Mitogen-activated protein kinase kinase kinase 5 (Homo sapiens) (UniProt Q99683); conditions: Compound concentration 1000.0 nM
[7] = target: Bone morphogenetic protein receptor type-2 (Homo sapiens) (UniProt Q13873); conditions: Compound concentration 1000.0 nM
[8] = target: Serine/threonine-protein kinase B-raf (Homo sapiens) (UniProt P15056); conditions: Compound concentration 1000.0 nM
[9] = target: Peripheral plasma membrane protein CASK (Homo sapiens) (UniProt O14936); conditions: Compound concentration 1000.0 nM
[10] = target: Cyclin-dependent kinase-like 3 (Homo sapiens) (UniProt Q8IVW4); conditions: Compound concentration 1000.0 nM
Sequence of Cyclin-dependent kinase-like 3 (Homo sapiens) (Q8IVW4 whole entry, looked up): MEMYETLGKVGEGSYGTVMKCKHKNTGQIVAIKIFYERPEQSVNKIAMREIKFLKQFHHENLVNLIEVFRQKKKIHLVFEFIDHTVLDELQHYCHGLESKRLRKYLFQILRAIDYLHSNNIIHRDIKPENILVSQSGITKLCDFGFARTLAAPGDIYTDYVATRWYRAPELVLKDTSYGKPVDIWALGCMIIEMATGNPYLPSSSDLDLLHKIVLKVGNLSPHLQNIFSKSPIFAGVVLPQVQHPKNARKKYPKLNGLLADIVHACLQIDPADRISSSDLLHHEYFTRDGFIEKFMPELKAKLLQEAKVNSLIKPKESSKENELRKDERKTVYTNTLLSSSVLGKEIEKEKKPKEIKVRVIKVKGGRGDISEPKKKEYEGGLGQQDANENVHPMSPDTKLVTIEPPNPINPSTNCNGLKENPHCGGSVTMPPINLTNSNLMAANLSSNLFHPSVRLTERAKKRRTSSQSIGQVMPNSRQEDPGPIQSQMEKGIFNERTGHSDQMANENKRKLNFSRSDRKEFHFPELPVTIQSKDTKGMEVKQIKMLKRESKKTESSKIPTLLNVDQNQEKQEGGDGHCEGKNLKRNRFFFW

[11] = target: Dual specificity protein kinase CLK1 (Homo sapiens) (UniProt P49759); conditions: Compound concentration 1000.0 nM
[12] = target: Casein kinase I isoform epsilon (Homo sapiens) (UniProt P49674); conditions: Compound concentration 1000.0 nM
[13] = target: Death-associated protein kinase 3 (Homo sapiens) (UniProt O43293); conditions: Compound concentration 1000.0 nM
[14] = target: Serine/threonine-protein kinase 17B (Homo sapiens) (UniProt O94768); conditions: Compound concentration 1000.0 nM
Sequence of Serine/threonine-protein kinase 17B (Homo sapiens) (O94768 whole entry): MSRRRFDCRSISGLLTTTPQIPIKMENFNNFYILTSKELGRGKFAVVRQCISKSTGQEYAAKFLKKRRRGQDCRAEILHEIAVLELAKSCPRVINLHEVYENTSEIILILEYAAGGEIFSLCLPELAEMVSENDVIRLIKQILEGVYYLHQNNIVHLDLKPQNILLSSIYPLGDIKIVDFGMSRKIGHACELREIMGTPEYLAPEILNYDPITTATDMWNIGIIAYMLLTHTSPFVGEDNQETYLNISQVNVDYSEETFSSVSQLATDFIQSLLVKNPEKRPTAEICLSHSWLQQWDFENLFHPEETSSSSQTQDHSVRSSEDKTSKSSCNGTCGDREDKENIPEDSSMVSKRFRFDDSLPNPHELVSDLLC

[15] = test system: Epidermal growth factor receptor (Homo sapiens), P00533 [T790M]; conditions: Compound concentration 1000.0 nM
[16] = target: Ephrin type-A receptor 5 (Homo sapiens) (UniProt P54756); conditions: Compound concentration 1000.0 nM
Sequence of Ephrin type-A receptor 5 (Homo sapiens) (P54756 whole entry): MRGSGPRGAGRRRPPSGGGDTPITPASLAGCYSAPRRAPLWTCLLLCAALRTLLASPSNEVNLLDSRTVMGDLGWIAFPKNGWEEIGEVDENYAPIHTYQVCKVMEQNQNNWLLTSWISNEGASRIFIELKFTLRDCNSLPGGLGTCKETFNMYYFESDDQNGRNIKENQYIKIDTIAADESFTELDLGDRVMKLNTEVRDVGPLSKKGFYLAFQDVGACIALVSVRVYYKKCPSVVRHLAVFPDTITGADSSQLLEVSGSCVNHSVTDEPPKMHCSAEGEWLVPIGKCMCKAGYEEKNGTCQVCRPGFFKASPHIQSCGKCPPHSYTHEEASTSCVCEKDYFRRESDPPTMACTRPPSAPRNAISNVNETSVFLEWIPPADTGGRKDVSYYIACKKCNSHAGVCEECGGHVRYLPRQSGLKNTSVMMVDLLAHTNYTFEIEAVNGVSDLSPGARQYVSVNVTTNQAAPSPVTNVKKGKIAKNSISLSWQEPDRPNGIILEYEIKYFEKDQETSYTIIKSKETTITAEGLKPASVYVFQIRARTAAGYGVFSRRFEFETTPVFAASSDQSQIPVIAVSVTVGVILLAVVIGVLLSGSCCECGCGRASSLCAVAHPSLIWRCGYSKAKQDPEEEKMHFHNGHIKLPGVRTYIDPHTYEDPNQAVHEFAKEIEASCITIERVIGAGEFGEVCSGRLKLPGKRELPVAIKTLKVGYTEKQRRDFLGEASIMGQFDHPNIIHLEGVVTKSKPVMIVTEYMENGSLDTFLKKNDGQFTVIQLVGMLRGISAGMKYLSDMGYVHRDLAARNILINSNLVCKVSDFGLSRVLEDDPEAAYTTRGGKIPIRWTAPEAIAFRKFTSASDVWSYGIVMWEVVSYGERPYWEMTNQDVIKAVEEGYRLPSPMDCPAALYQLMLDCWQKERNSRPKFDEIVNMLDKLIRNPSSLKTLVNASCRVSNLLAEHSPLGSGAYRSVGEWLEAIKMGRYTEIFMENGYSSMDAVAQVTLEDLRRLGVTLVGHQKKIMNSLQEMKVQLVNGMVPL

[17] = target: Tyrosine-protein kinase Fes/Fps (Homo sapiens) (UniProt P07332); conditions: Compound concentration 1000.0 nM
[18] = test system: Receptor-type tyrosine-protein kinase FLT3 (Homo sapiens), P36888 [D835Y]; conditions: Compound concentration 1000.0 nM
[19] = target: Tyrosine-protein kinase Fyn (Homo sapiens) (UniProt P06241); conditions: Compound concentration 1000.0 nM
[20] = target: Homeodomain-interacting protein kinase 3 (Homo sapiens) (UniProt Q9H422); conditions: Compound concentration 1000.0 nM
[21] = target: Inhibitor of nuclear factor kappa-B kinase subunit alpha (Homo sapiens) (UniProt O15111); conditions: Compound concentration 1000.0 nM
[22] = target: Mast/stem cell growth factor receptor Kit (Homo sapiens) (UniProt P10721); conditions: Compound concentration 1000.0 nM
[23] = target: Serine/threonine-protein kinase LATS1 (Homo sapiens) (UniProt O95835); conditions: Compound concentration 1000.0 nM
[24] = target: Dual specificity mitogen-activated protein kinase kinase 2 (Homo sapiens) (UniProt P36507); conditions: Compound concentration 1000.0 nM
[25] = target: Dual specificity mitogen-activated protein kinase kinase 3 (Homo sapiens) (UniProt P46734); conditions: Compound concentration 1000.0 nM
[26] = target: Hepatocyte growth factor receptor (Homo sapiens) (UniProt P08581); conditions: Compound concentration 1000.0 nM
[27] = target: Serine/threonine-protein kinase Nek10 (Homo sapiens) (UniProt Q6ZWH5); conditions: Compound concentration 1000.0 nM
[28] = target: Mitogen-activated protein kinase 12 (Homo sapiens) (UniProt P53778); conditions: Compound concentration 1000.0 nM
[29] = target: Serine/threonine-protein kinase PAK 1 (Homo sapiens) (UniProt Q13153); conditions: Compound concentration 1000.0 nM
[30] = target: Cyclin-dependent kinase 16 (Homo sapiens) (UniProt Q00536); conditions: Compound concentration 1000.0 nM
[31] = target: Phosphatidylinositol 4-kinase beta (Homo sapiens) (UniProt Q9UBF8); conditions: Compound concentration 1000.0 nM
Sequence of Phosphatidylinositol 4-kinase beta (Homo sapiens) (Q9UBF8 2-816 limits assumed): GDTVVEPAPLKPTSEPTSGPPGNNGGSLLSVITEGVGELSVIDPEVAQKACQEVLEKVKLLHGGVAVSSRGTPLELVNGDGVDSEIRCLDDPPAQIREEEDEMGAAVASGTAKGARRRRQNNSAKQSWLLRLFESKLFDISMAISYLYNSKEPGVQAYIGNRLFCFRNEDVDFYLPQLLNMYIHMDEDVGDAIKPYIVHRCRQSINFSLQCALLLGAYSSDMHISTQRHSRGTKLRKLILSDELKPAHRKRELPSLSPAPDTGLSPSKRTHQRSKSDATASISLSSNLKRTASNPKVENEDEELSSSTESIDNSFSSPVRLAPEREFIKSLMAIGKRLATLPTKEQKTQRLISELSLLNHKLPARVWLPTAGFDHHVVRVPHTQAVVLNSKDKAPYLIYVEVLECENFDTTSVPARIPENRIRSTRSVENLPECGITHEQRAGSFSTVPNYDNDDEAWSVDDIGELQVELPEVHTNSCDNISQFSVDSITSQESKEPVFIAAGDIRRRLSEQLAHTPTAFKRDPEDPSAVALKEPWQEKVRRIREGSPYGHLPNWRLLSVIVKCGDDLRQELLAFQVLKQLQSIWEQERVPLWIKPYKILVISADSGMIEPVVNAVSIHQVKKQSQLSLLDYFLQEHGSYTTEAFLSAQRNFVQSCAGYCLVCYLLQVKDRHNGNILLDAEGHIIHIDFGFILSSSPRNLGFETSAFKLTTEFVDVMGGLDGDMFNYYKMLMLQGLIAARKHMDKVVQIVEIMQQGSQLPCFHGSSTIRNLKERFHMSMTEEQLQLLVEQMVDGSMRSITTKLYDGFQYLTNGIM

[32] = target: Protein kinase C epsilon type (Homo sapiens) (UniProt Q02156); conditions: Compound concentration 1000.0 nM
[33] = target: Serine/threonine-protein kinase D3 (Homo sapiens) (UniProt O94806); conditions: Compound concentration 1000.0 nM
[34] = target: RAF proto-oncogene serine/threonine-protein kinase (Homo sapiens) (UniProt P04049); conditions: Compound concentration 1000.0 nM
[35] = target: Receptor-interacting serine/threonine-protein kinase 2 (Homo sapiens) (UniProt O43353); conditions: Compound concentration 1000.0 nM
[36] = target: Rho-associated protein kinase 2 (Homo sapiens) (UniProt O75116); conditions: Compound concentration 1000.0 nM
[37] = target: Serine/threonine-protein kinase TAO2 (Homo sapiens) (UniProt Q9UL54); conditions: Compound concentration 1000.0 nM
[38] = target: High affinity nerve growth factor receptor (Homo sapiens) (UniProt P04629); conditions: Compound concentration 1000.0 nM
[39] = target: Transient receptor potential cation channel subfamily M member 6 (Homo sapiens) (UniProt Q9BX84); conditions: Compound concentration 1000.0 nM
[40] = target: Non-receptor tyrosine-protein kinase TYK2 (Homo sapiens) (UniProt P29597); conditions: Compound concentration 1000.0 nM
[41] = target: Wee1-like protein kinase (Homo sapiens) (UniProt P30291); conditions: Compound concentration 1000.0 nM
[42] = target: 5-hydroxytryptamine receptor 1E (Homo sapiens) (UniProt P28566); conditions: Compound concentration 10.0 uM
[43] = target: D(4) dopamine receptor (Homo sapiens) (UniProt P21917); conditions: Compound concentration 10.0 uM
[44] = target: Sodium-dependent noradrenaline transporter (Homo sapiens) (UniProt P23975); conditions: Compound concentration 10.0 uM
[45] = target: Histamine H2 receptor (Homo sapiens) (UniProt P25021); conditions: Compound concentration 10.0 uM
Sequence of Histamine H2 receptor (Homo sapiens) (P25021 whole entry): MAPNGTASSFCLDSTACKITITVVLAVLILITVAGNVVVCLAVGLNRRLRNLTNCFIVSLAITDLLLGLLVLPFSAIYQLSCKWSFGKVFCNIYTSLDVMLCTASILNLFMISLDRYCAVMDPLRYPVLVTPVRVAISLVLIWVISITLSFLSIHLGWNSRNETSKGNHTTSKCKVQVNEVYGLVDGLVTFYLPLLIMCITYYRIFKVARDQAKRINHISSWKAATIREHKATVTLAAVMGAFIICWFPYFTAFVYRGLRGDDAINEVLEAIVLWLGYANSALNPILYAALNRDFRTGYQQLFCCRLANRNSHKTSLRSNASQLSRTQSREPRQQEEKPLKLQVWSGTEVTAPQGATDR

[46] = target: Muscarinic acetylcholine receptor M1 (Homo sapiens) (UniProt P11229); conditions: Compound concentration 10.0 uM
Sequence of Muscarinic acetylcholine receptor M1 (Homo sapiens) (P11229 whole entry): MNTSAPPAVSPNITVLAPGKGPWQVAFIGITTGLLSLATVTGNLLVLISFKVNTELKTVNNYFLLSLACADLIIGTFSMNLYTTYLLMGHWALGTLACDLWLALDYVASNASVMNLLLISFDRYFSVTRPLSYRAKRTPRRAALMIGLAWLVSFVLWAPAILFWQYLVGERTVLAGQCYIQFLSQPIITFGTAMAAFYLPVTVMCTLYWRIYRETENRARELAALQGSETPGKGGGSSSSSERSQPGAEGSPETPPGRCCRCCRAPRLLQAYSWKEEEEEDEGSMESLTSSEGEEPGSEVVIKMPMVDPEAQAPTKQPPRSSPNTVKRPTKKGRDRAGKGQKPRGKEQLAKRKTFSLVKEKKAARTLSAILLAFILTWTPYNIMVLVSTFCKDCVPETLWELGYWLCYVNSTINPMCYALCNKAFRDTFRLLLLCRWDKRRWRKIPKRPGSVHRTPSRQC

Sequence of Tyrosine-protein kinase ABL2 (Homo sapiens) (P42684 whole entry): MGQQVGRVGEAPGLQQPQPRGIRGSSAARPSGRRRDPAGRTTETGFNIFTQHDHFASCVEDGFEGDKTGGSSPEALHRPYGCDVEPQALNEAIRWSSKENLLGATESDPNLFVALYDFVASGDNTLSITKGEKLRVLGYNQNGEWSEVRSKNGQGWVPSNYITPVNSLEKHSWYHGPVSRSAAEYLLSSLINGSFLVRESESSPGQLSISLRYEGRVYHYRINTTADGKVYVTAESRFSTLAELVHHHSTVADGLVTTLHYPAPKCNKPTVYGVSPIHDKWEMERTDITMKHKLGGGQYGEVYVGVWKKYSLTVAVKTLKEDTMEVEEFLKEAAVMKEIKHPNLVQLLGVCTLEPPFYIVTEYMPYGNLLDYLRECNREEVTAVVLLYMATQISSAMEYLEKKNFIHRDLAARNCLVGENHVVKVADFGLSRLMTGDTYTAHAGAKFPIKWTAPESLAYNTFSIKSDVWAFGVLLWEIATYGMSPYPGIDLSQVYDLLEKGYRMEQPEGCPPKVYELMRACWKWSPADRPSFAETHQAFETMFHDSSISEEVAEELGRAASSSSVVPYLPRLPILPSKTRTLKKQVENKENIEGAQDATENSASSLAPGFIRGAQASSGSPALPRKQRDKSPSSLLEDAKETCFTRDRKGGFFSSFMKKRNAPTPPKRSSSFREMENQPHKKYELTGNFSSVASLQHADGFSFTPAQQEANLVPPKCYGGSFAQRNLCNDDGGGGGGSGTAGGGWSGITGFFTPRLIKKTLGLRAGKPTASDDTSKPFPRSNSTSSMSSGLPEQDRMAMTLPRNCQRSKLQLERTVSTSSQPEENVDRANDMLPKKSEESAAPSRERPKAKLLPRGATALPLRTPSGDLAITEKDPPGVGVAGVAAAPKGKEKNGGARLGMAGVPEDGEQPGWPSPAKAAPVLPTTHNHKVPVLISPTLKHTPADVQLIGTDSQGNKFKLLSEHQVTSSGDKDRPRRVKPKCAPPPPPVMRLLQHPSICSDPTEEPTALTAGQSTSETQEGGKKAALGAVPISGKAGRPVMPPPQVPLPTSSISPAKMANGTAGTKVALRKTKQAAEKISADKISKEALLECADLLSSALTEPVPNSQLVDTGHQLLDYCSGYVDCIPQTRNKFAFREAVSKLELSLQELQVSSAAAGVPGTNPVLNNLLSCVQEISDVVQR

O=C(N[C@H]1CCCCC/C=C\C2C[C@@]2(C(=O)O)NC(=O)[C@@H]2C[C@@H](Oc3ccncc3)CN2C1=O)OC1CCCC1 (some centres not stated) [BI 1675]
inactive: residual activity [1] 100% | residual activity [2] 71% | residual activity [3] 100% | residual activity [4] 100% | residual activity [5] 100% | residual activity [6] 91% | residual activity [7] 100% | residual activity [8] 100% | residual activity [9] 89% | residual activity [10] 99% | residual activity [11] 100% | residual activity [12] 67% | residual activity [13] 100% | residual activity [14] 69% | residual activity [15] 91% | residual activity [16] 100% | residual activity [17] 100% | residual activity [18] 98% | residual activity [19] 100% | residual activity [20] 100% | residual activity [21] 100% | residual activity [22] 84% | residual activity [23] 99% | residual activity [24] 87% | residual activity [25] 80% | residual activity [26] 60% | residual activity [27] 81% | residual activity [28] 100% | residual activity [29] 89% | residual activity [30] 83% | residual activity [31] 81% | residual activity [32] 100% | residual activity [33] 82% | residual activity [34] 100% | residual activity [35] 100% | residual activity [36] 100% | residual activity [37] 100% | residual activity [38] 100% | residual activity [39] 98% | residual activity [40] 99% | residual activity [41] 100% | inhibition [42] 0% | inhibition [43] 9.26% | inhibition [44] -6.94% | inhibition [45] 15.6% | inhibition [46] 14.1%

COc1ccc2c(O[C@@H]3C[C@H]4C(=O)N[C@]5(C(=O)O)CC5/C=C\CCCCC[C@H](NC(=O)OC5CCCC5)C(=O)N4C3)cc(-c3csc(NC(=O)C(C)C)n3)nc2c1C (some centres not stated) [BI 1230]
inactive: residual activity [1] 99% | residual activity [2] 91% | residual activity [3] 98% | residual activity [4] 100% | residual activity [5] 100% | residual activity [6] 93% | residual activity [7] 84% | residual activity [8] 86% | residual activity [9] 97% | residual activity [10] 92% | residual activity [11] 98% | residual activity [12] 100% | residual activity [13] 100% | residual activity [14] 88% | residual activity [15] 85% | residual activity [16] 97% | residual activity [17] 100% | residual activity [18] 87% | residual activity [19] 100% | residual activity [20] 83% | residual activity [21] 92% | residual activity [22] 72% | residual activity [23] 100% | residual activity [24] 77% | residual activity [25] 82% | residual activity [26] 99% | residual activity [27] 79% | residual activity [28] 91% | residual activity [29] 100% | residual activity [30] 79% | residual activity [31] 71% | residual activity [32] 58% | residual activity [33] 100% | residual activity [34] 95% | residual activity [35] 100% | residual activity [36] 95% | residual activity [37] 98% | residual activity [38] 82% | residual activity [39] 100% | residual activity [40] 74% | residual activity [41] 100% | inhibition [42] 14.9% | inhibition [43] 24.6% | inhibition [44] -4.46% | inhibition [45] 39.4% | inhibition [46] 8.82%
